# Experimental data: publication PMC4971421, “Redox-Dependent Modulation of T-Type Ca^2+ Channels in Sensory Neurons Contributes to Acute Anti-Nociceptive Effect of Substance P” (Antioxidants & Redox Signaling, 2016)
# How the values were obtained:
# rat hind paw [1] = experiment: Cotton swab test (gentle touch); format: in vivo; details: 50 μl; 0.5 nmol/site; 8 min after injection
# Protocol: For measurement of sensitivity to gentle touch and mechanical hyperalgesia, two methods were used. (i) Cotton swab test was performed as previously described ([53]). Briefly, rats were allowed to acclimate in a cage with a wire mesh bottom for at least 30 min and then were manually probed with a “cotton swab” pulled from a Q-tip (to approximately three times the original size). A swab was applied in a sweeping motion underneath the rats’ paws, and the withdrawal responses were recorded. Five sweeps were applied in each test, with at least 10 s between each sweep; withdrawal score was calculated as a percentage of positive responses. (ii) The von Frey test was performed using a calibrated range of filaments with different bending forces (2, 4, 6, 8, 10, and 15 g; Stoelting Co.). A single filament was applied perpendicularly to the plantar surface of the hind paw for five times, with an interval of 5 s, and it was scored for withdrawal responses. Each force was probed five times, the number of withdrawals out of five trials was counted, and the percentage of withdrawal responses was calculated. Both types of assays were performed 8 min after the hind-paw drug injection.
# hERG channels = details: 1 μM; cited from earlier work
# rat hind paw [2] = experiment: BK-induced nocifensive behavior, pre-injection protocol; format: in vivo; details: for BK-induced nociception: 5 min before BK 10 nmol/site
# Protocol: Sprague–Dawley rats (body weight, 170–180 g) were grouped randomly and allowed to acclimate for at least 30 min in a transparent observation chamber before the experiment. Animals received a 50-μl intraplantar injection of ST101 (0.001–10 nmol/site), BK (10 nmol/site), RTG (1–10 nmol/site), Z944 (0.05–5 nmol/site), SP (0.5–5 nmol/site), or saline, respectively, into the right hind paw. For evaluation of the acute “spontaneous” pain, animals were video-recorded for 30 min after the injection and protective (“nocifensive”) behavior was analyzed as time spent licking, biting, lifting, and flinching the injected paw. The analyses were performed by an observer who was unaware of treatment allocations. In the pre-injection experiments, the right hind paw of the animal received a pre-injection of 50 μl Z944 (0.05–0.5 nmol/site), RTG (1–10 nmol/site), SP (0.5 nmol/site), Z944 (0.05–0.5 nmol/site)+RTG (1 nmol/site), or saline; 5 min later, on the same paw, the animal received a further 50-μl injection of BK (10 nmol/site) together with the pre-injection drug mix. Nocifensive behavior was analyzed as described earlier.
# The in vivo CaV3.2 knock-down was performed as described earlier ([3]) by using the same ODN sequences that were synthesized by SBS Genetech. AS ODNs had the following sequence: […]. The mismatch ODNs of the following sequence were used as a negative control: […]. The mismatch ODN was not complementary to any known nucleotide sequence. ODNs were reconstituted in saline before injection. ODNs (12.5 μg/rat in 10 μl of saline) or saline were injected intrathecally (i.t.) between the L5 and L6 dorsal spinous processes as described earlier ([3], [42]) under isoflurane anesthesia. The treatment was repeated twice daily for 4 days. The pain tests were performed on the next day after the last injection. After behavioral testing, animals were humanly sacrificed; lumbar DRGs were extracted and analyzed for the knock-down efficiency by comparing the Cacna1h mRNA levels in lumbar (L4 to L6) DRGs of the saline-injected, mismatch ODN-injected, and AS ODN-injected animals using RT-PCR. The same Cacna1h and Gapdh primers as in siRNA experiments were used for RT-PCR.
smiles,measurement,setting,value
"CC(C)(C)NC(=O)CN1CCC(CNC(=O)c2cc(F)cc(Cl)c2)CC1 [Z944, N-[[1-[2-(tert-butylamino)-2-oxoethyl]piperidin-4-yl]methyl]-3-chloro-5-fluorobenzamide]","sensitivity to light touch, cotton swab assay",rat hind paw [1],produced a similar effect
same,effect on hERG channels,hERG channels,no significant effect
same,nocifensive behavior produced by hind-paw BK injection in saline- and mismatch ODN-injected animals,"rat hind paw [2]; 0.5 nmol/site, BK 10 nmol/site",still significantly attenuated
same,BK-induced nociception,rat hind paw [2]; pre-injection 0.05 nmol/site,not at 0.05 nmol/site
same,BK-induced nociception,rat hind paw [2]; pre-injection 0.5 nmol/site,significantly attenuated
